Values after ≈ are worked out from the molar mass of the structure shown.
Key:
[1] = target: T1, TG3a (Homo sapiens, UniProt Q08188); assay: Fluorescence isopeptidase activity assay (A101 FRET-quenched probe), isozyme selectivity; type: biochemical; conditions: normalized [I]/α
T1 construct: purchased Zedira
T1 sequence (Q08188 2-467 limits assumed): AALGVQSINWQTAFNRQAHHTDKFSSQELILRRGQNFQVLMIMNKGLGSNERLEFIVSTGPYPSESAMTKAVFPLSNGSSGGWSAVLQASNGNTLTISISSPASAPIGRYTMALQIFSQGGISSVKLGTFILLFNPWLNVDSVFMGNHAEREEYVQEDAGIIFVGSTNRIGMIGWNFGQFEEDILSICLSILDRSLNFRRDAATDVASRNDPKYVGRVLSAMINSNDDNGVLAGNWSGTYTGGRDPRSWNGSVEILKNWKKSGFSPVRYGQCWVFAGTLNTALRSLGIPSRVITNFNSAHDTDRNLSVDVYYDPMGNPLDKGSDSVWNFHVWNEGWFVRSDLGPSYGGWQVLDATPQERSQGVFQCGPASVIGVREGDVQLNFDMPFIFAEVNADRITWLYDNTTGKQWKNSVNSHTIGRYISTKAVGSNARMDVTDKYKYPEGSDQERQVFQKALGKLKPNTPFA
T1 sequence (Q08188 468-693 partner limits assumed): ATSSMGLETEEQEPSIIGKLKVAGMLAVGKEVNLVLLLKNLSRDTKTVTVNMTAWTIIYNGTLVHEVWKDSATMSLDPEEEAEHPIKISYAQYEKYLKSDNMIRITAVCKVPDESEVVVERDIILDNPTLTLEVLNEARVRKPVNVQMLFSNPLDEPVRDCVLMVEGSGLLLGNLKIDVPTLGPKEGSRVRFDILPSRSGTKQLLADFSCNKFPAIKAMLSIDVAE
Description: Fluorescence isopeptidase activity assay. The isopeptidase activity of pre-activated TG3a and FXIIIa (purchased from Zedira) was measured via a fluorescence-based assay as described (Kirily, R. et al., “Isopeptidase activity of human transglutaminase 2: disconnection from transamidation and characterization by kinetic parameters.” Amino Acids 2016, 48 (1), 31-40) using the commercially available peptidic FRET quenched probe A101. Briefly, the final concentration in the reaction mixture contained 50 mM Tris (pH 7.0), 10 mM CaCl2, 100 mM NaCl, 2.8 mM TCEP, 50 μM A101 and 14 mM H-Gly-OMe. The reaction was monitored at 25° C. using a BioTek Synergy 4 plate reader (Ex/Em: 318/413 nm). Enzymatic inhibition assays were run under Kitz and Wilson conditions (Kitz, R. and Wilson, I. B., “Esters of methanesulfonic acid as irreversible inhibitors of acetylcholinesterase.” J. Biol. Chem. 1962, 237, 3245-49), which were established for TG3a and FXIIIa at a substrate (A101) concentration of 50 μM using enzyme concentrations of 0.17 μM and 0.11 μM for TG3a and FXIIIa, respectively.

[2] = tested on: MDCK − MDR1; assay: MDCK-MDR1 permeability; type: in vitro ADME; conditions: for MDCK − MDR1 Papp (A→B): apical to basolateral; for MDCK − MDR1 Papp (B→A): basolateral to apical
[3] = Plasma stability; type: in vitro ADME
[4] = tested on: SCC-13 cells; assay: ECS cell invasion through Matrigel (Transwell); type: cell-based; conditions: 0-100 μM inhibitor, 18 h, read-out: EC50 for inhibition of ECS invasion
Description: One well-known property of tumour-initiating cells associated with cancer metastasis is the enhanced ability to invade Matrigel (collagen). For example, it has been shown that epidermal cancer stem (ECS) cells invade Matrigel more efficiently than non-stem cancer cells, and that these properties are associated with enhanced tumour formation (Adhikary, G. et al., PLoS ONE 2013, 8, e84324. https://doi.org/10.1371/journal.pone.0084324). We have shown previously that ˜20 μM of NC9 and 3.9 μM of VA4 can reduce ECS cell invasion through Matrigel by ˜50% relative to vehicle-treated cells (Akbar, A. et al., J. Med. Chem. 2017, 60, 7910-7927. https://doi.org/10.1021/acs.jmedchem.7b01070; Fisher, M. L. et al., Oncotarget 2015, 6, 20525-20539. https://doi.org/10.18632/oncotarget.3890).
Materials and Methods for cell invasion data. To measure cell invasion, Matrigel (Corning, catalogue no. 354234) was diluted to 250 μg/mL and 120 μL was added to the upper chambers of a Transwell plate (Corning, no. 353097, 1-cm diameter, 8-μm pore size) and allowed to solidify. SCC-13 cells were suspended in spheroid medium (Fisher, M. L. et al., Cancer Res. 2016, 76, 7265-7275. https://doi.org/10.1158/0008-5472.can-16-2032; Adhikary, G. et al., Carcinogenesis 2015, 36, 800-810. https://doi.org/10.1093/carcin/bgv064) containing 1% foetal calf serum (FCS), and 20,000 cells were plated into each upper chamber atop the Matrigel. The bottom chamber contained spheroid medium supplemented with 10% FCS and 0-100 μM of inhibitor. After incubation for 18 h in a 37° C. incubator, cells in the top chamber were removed with a swab and cells on the lower surface of the membrane were fixed with 4% paraformaldehyde and the nuclei were stained with 4′,6-diamidino-2-phenylindole. Cell number was counted in multiple fields (n=4) using a fluorescence microscope, normalized with respect to the number counted in the presence of vehicle only, and expressed as mean±standard deviation.

[5] = Protein binding; type: in vitro ADME
[6] = PAMPA passive diffusion across a lipid membrane; type: in vitro ADME
Description: Passive diffusion across a lipid membrane was measured by PAMPA for both inhibitors 72 and 74. The values shown in Table 6 indicate both compounds were at least moderately permeant.

[7] = Metabolic stability in human hepatocyte model; type: in vitro ADME; conditions: hepatocytes; for hepatocyte CLint: calculated intrinsic clearance; for half-life: read-out: Hepatocyte t½
Description: The metabolic stabilities of inhibitors 72 and 74 were also evaluated in a human hepatocyte model. The half-lives and calculated intrinsic clearance shown in Table 6 are indicative of moderate stability.

[8] = tested on: P-gp (MDR1); assay: MDCK-MDR1 permeability; type: in vitro ADME; conditions: dog, MDCK-MDR1
[9] = Kinetic solubility; type: physicochemical; conditions: kinetic from dmso stock

For `C=CC(=O)NCCCC[C@H](NC(=O)OCc1ccccc1)C(=O)N1CCN(C(=O)c2cccc3ccccc23)CC1` [AA9, reference compound], which “inhibition of TG3a” value [1] is on record?
The value was “none of these inhibitors showed any detectable inhibition”.

Which “MDCK − MDR1 Papp (A→B)” value [2] does the source give for `C=CC(=O)NCCCC[C@H](NC(=O)Cc1ccccc1F)C(=O)N1CCN(C(=O)c2cccc3ccccc23)CC1` [Inhibitor 72, (S)-N-(6-(4-(1-naphthoyl)piperazin-1-yl)-5-(2-(2-fluorophenyl)acetamido)-6-oxohexyl)acrylamide] here?
Its value is 0.29 10^−6 cm/s.

And the “MDCK − MDR1 Papp (B→A)” value [2]?
The value was 18.2 10^−6 cm/s.

And the “Plasma t½” value [3]?
Its value is 17.92 h.

And the EC50 [4]?
Its EC50 is 77 µM.

What about the “inhibition of TG3a” value [1] of the same compound?
The value was “none of these inhibitors showed any detectable inhibition”.

And the “Protein Binding” value [5]?
The value was 84%.

What about the “Protein Binding Recovery” value [5] of the same compound?
Its value is 86%.

And the “PAMPA −Log [Pe (cm/s)]” value [6]?
Its value is 5.44.

And the hepatocyte CLint [7]?
The hepatocyte CLint was 2.37 µL/min/1e6 cells.

And the half-life [7]?
The half-life was 9.73 h.

Which “MDCK − MDR1 Efflux Ratio” value [2] does the source give for `C=CC(=O)NCCCC[C@H](NC(=O)Cc1ccccc1C)C(=O)N1CCN(C(=O)c2cccc3ccccc23)CC1` [Inhibitor 74, (S)-N-(6-(4-(1-naphthoyl)piperazin-1-yl)-5-(2-(2-methylphenyl)acetamido)-6-oxohexyl)acrylamide] here?
Its value is 51.6.

And the “MDCK − MDR1 Papp (A→B)” value [2]?
Its value is 0.32 10^−6 cm/s.

What about the “MDCK − MDR1 Papp (B→A)” value [2] of the same compound?
Its value is 16.5 10^−6 cm/s.

What about the efflux ratio [8] of the same compound?
The efflux ratio was greater than 50.

And the “Plasma t½” value [3]?
Its value is 9.47 h.

What about the EC50 [4] of the same compound?
Its EC50 is 119 ± 5 µM.

And the solubility kinetic [9]?
Its solubility kinetic is 39 µM (≈ 21.6 µg/mL).

And the “inhibition of TG3a” value [1]?
The value was “none of these inhibitors showed any detectable inhibition”.

And the “Protein Binding” value [5]?
The value was 85%.

What about the “Protein Binding Recovery” value [5] of the same compound?
The value was 93%.

And the “PAMPA −Log [Pe (cm/s)]” value [6]?
The value was 5.03.

What about the hepatocyte CLint [7] of the same compound?
The hepatocyte CLint was 5.58 µL/min/1e6 cells.

And the half-life [7]?
The half-life was 4.18 h.
